Source: publication PMC12104674 (Frontiers in Pharmacology, 2025)
Like-named read-outs stand apart in the source and are kept apart here. Values belong to the compound of their own block, whether it stands above or below them.

Columns and labels:
[1] = Pyrotinib plasma pharmacokinetics with/without loperamide (Group B), LC-MS/MS, NCA; assay type: in vivo, healthy volunteers
Protocol: (§1) On day 1, all subjects received a single oral dose of 400 mg pyrotinib after breakfast. […] Subjects in Group B received a single oral dose of 400 mg pyrotinib and 4 mg loperamide after breakfast on day 9, followed by additional doses of 2 mg loperamide at 2 h and 4 h post-administration.
(§2) Blood samples were collected at baseline (within 30 min prior to drug administration) and at 1, 2, 3, 4, 5, 6, 7, 8, 10, 12, 24, 48, 72, and 96 h following pyrotinib administration on days 1 and 9 to measure the concentration of pyrotinib in the plasma. After completion of the study on day 13, subjects underwent a final examination and were subsequently discharged. A safety follow-up was conducted between days 16 and 19.
(§3) The analysis of plasma samples for pyrotinib was based on a validated and sensitive liquid chromatography-tandem mass spectrometry (LC-MS/MS) method with high specificity. The plasma samples were stored at −70°C and analyzed within a stability period of 176 days. The calibration range for the standard curve was between 1.00 and 500 ng/mL, and the regression equation used linear fitting with a weighting factor of W = 1/X^2 (bioanalysis method validation report, data on file). In each batch of analysis, the number of quality control (QC) samples accounted for more than 5% of the unknown samples in that batch. […] Representative chromatograms of pyrotinib at the LLOQ (lower limit of quantification) and in a plasma sample can be found in the Supplementary Material.
(§4) The individual pharmacokinetic parameters of pyrotinib would be calculated using non-compartmental analysis (NCA) and summarized by groups and combination status with descriptive statistics. To estimate the difference in the least-square means between the combination treatment and pyrotinib alone, a mixed-effects model was used to analyze the natural log-transformed pharmacokinetic parameters of pyrotinib (including AUC0- ∞ , AUC0-t, and Cmax) for each group. The model included treatment as a fixed effect and subject as a random effect. Results were exponentiated to obtain geometric least-squares means, geometric mean ratios, and corresponding 90% confidence intervals (CIs) on the original scale. […] To account for a 10% dropout rate, 18 subjects were planned for each of Groups A and B, resulting in a total of 36 subjects.

[2] = Safety analysis (TEAEs), Group A; assay type: in vivo, healthy volunteers
Protocol: (§5) As summarized in Figure 1, the participants were divided into two groups: […] On day 1, all subjects received a single oral dose of 400 mg pyrotinib after breakfast. […] Subjects were instructed to have a light meal the night before the administration of the drug and to fast for 10 h overnight. Safety assessments included adverse events (AEs), physical examinations, vital signs, 12-lead ECGs, and clinical laboratory tests (hematology, serum chemistry, and urinalysis).

[3] = design: method as in data on file; conditions: healthy volunteers, ref data on file, cited from earlier work
[4] = Pyrotinib plasma pharmacokinetics with/without montmorillonite powder (Group A), LC-MS/MS, NCA; assay type: in vivo, healthy volunteers; conditions: for Tmax: median (minimum, maximum); for Vd/F: read-out: Vz/F
Protocol: as §1, §2, §3, §4

[5] = tested on: untreated HER2-positive metastatic breast cancer; conditions: cited from earlier work
[6] = Safety analysis (TEAEs), Group B; assay type: in vivo, healthy volunteers
Protocol: as §5

albumin = conditions: of loperamide available in blood; cited from earlier work
[7] = cited from earlier work; for bioavailability: oral loperamide, significant first-pass effect, ref IMODIUM package insert (2016)
CYP3A4 [8] = test: Calculated R1 / R1,gut for reversible CYP3A4 inhibition by loperamide
CYP3A4 [9] = tested on: CYP3A4; design: method as in Marechal et al., 2006; conditions: CYP3A4 inhibition; ref Marechal et al., 2006; cited from earlier work
[10] = combination with loperamide/pyrotinib alone
[11] = with loperamide vs. pyrotinib alone
[12] = combination with montmorillonite powder/pyrotinib alone
[13] = human, plasma, oral, Group A, pyrotinib alone, 400 mg, day 1, geometric mean (geometric CV)
[14] = with montmorillonite powder 2 h after pyrotinib vs. pyrotinib alone

CL/F ([1]; Group B, 400 mg pyrotinib + loperamide 4+2+2 mg, day 9, geometric mean (geometric CV)): 160 L/h | CL/F ([1]; Group B, pyrotinib alone, 400 mg, day 1, geometric mean (geometric CV)): 189 L/h | CL/F ([1]; Group B, pyrotinib alone, 400 mg, day 1, geometric mean (geometric CV), listed as Pyrtonib): 189 (26.7) L/h | geometric mean ratio (90% CI), AUC0-t [1, 10]: 1.18 (1.08, 1.28) | geometric mean ratio (90% CI), AUC0-∞ [1, 10]: 1.19 (1.09, 1.29) | geometric mean ratio (90% CI), Cmax [1, 10]: 0.946 (0.867, 1.03) | AUC(0-t) ([1]; human, oral, Group B, 400 mg pyrotinib + 4 mg loperamide, then 2 mg loperamide at 2 and 4 h, day 9, plasma pyrotinib, geometric mean (geometric CV), read-out: AUC0-t): 2.43 µg·h/mL | AUC(0-inf) ([1]; human, plasma, oral, 400 mg, Group B, pyrotinib alone, 400 mg, day 1, geometric mean (geometric CV), read-out: AUC0-∞): 2.11 µg·h/mL | AUC(0-t) ([1]; human, plasma, oral, 400 mg, Group B, pyrotinib alone, mixed-effects model, read-out: Geometric least-square mean AUC0-t): 2.06 µg·h/mL | AUC(0-inf) ([1]; human, plasma, oral, 400 mg, Group B, pyrotinib alone, mixed-effects model, read-out: Geometric least-square mean AUC0-∞): 2.11 µg·h/mL | AUC(0-inf) ([1]; human, plasma, oral, Group B, 400 mg pyrotinib + loperamide 4+2+2 mg, day 9, geometric mean (geometric CV), read-out: AUC0-∞): 2.5 µg·h/mL | Cmax ([1]; human, plasma, oral, Group B, pyrotinib alone, 400 mg, day 1, geometric mean (geometric CV)): 0.124 µg/mL | Vd/F ([1]; human, plasma, oral, Group B, pyrotinib alone, 400 mg, day 1, geometric mean (geometric CV), read-out: Vz/F): 4520 L | half-life ([1]; human, plasma, oral, Group B, pyrotinib alone, 400 mg, day 1, mean (SD)): 17.3 h | Tmax ([1]; human, plasma, oral, Group B, pyrotinib alone, 400 mg, day 1, median (minimum, maximum)): 4.98 h | AUC(0-t) ([1]; human, Group B, pyrotinib alone, single oral 400 mg after breakfast, day 1, plasma pyrotinib, geometric mean (geometric CV), read-out: AUC0-t): 2.06 µg·h/mL | change in median Tmax of pyrotinib [1, 11]: no significant change | decrease in Cmax of pyrotinib [1, 11]: approximately 5.4% | increase in AUC0-t of pyrotinib [1, 11]: approximately 18% | increase in AUC0-∞ of pyrotinib [1, 11]: ~19% | CL/F ([4]; Group A, 400 mg pyrotinib then 3 g montmorillonite powder 2 h later, day 9, geometric mean (geometric CV)): 315 L/h | CL/F ([4]; Group A, pyrotinib alone, 400 mg, day 1, geometric mean (geometric CV)): 213 L/h | CL/F ([4]; Group A, pyrotinib alone, 400 mg, day 1, geometric mean (geometric CV), listed as Pyrtonib): 213 (40.5) L/h | geometric mean ratio (90% CI), AUC0-t [4, 12]: 0.669 (0.601, 0.745) | geometric mean ratio (90% CI), AUC0-∞ [4, 12]: 0.676 (0.610, 0.749) | geometric mean ratio (90% CI), Cmax [4, 12]: 0.733 (0.670, 0.803) | half-life ([4]; human, plasma, oral): 16.3 h | AUC(0-inf) ([4]; human, plasma, oral, 400 mg, Group A, pyrotinib alone, 400 mg, day 1, geometric mean (geometric CV), read-out: AUC0-∞): 1.88 µg·h/mL | Tmax ([4]; human, plasma, oral, 400 mg, Group A, pyrotinib alone, 400 mg, day 1): 5 h | AUC(0-t) ([4]; human, plasma, oral, 400 mg, Group A, pyrotinib alone, mixed-effects model, read-out: Geometric least-square mean AUC0-t): 1.83 µg·h/mL | AUC(0-inf) ([4]; human, plasma, oral, 400 mg, Group A, pyrotinib alone, mixed-effects model, read-out: Geometric least-square mean AUC0-∞): 1.88 µg·h/mL | AUC(0-inf) ([4]; human, plasma, oral, Group A, 400 mg pyrotinib then 3 g montmorillonite powder 2 h later, day 9, geometric mean (geometric CV), read-out: AUC0-∞): 1.27 µg·h/mL | Tmax ([4]; human, plasma, oral, Group A, 400 mg pyrotinib then 3 g montmorillonite powder 2 h later, day 9): 3.51 h | decrease in Tmax ([4]; human, plasma, oral, with montmorillonite powder vs. pyrotinib alone, read-out: time to maximum concentration earlier by): 1.5 h | Cmax [4, 13]: 0.105 µg/mL | Vd/F [4, 13]: 4580 L | half-life ([4]; human, plasma, oral, Group A, pyrotinib alone, 400 mg, day 1, mean (SD)): 15.5 h | Vd/F ([4]; human, plasma, oral): 7120 L | AUC(0-t) ([4]; human, Group A, pyrotinib alone, single oral 400 mg after breakfast, day 1, plasma pyrotinib, geometric mean (geometric CV), read-out: AUC0-t): 1.83 µg·h/mL | reduction in exposure of pyrotinib ([4]; montmorillonite powder at 2-h interval): 33% | decrease in AUC0-t of pyrotinib [4, 14]: 33.1% | decrease in AUC0-∞ of pyrotinib [4, 14]: 32.4% | decrease in Cmax of pyrotinib [4, 14]: 26.7% | change in t1/2 of pyrotinib ([4]; with montmorillonite powder vs. pyrotinib alone): no significant change
Compound: CCOc1cc2ncc(C#N)c(Nc3ccc(OCc4ccccn4)c(Cl)c3)c2cc1NC(=O)/C=C/[C@H]1CCCN1C [Pyrotinib]
incidence of hypertriglyceridemia ([2]; Group A): 11.1% | serious adverse events ([2]; Group A): No serious adverse events | number of treatment-emergent adverse events (TEAEs) ([2]; Group A (N = 18)): 11 | subjects who experienced TEAEs ([2]; Group A (N = 18), pyrotinib 400 mg day 1 and pyrotinib + montmorillonite powder day 9): eight | severity of TEAEs ([2]; Group A, all TEAEs): mild (Grade 1) | incidence of each other TEAE ([2]; Group A, hypercholesterolemia, nausea, abdominal distension, ALT elevation, AST elevation, bradycardia, elevated blood bilirubin, upper respiratory tract infection, orthostatic hypotension (each)): 5.6% | time to peak concentration ([3]; oral 400 mg pyrotinib): approximately 5 h | elimination half-life [3]: approximately 18 h | progression-free survival (PFS) ([5]; pyrotinib combined with trastuzumab and docetaxel, ref Ma et al., 2023): 24.3 months | incidence of diarrhea grade 3 or higher ([5]; pyrotinib group (138/297), ref Ma et al., 2023): 46% | incidence of diarrhea ([5]; pyrotinib group (293/297), ref Ma et al., 2023): 99% | hazard ratio (PFS) ([5]; pyrotinib vs. placebo, each with trastuzumab and docetaxel, ref Ma et al., 2023): 0.41 | duration of diarrhea ([5]; usually, ref Ma et al., 2023): 2 to 3 days | incidence of hypertriglyceridemia ([6]; Group B): 22.2% | incidence of hyperuricemia ([6]; Group B): 11.1% | incidence of oral ulcer ([6]; Group B): 11.1% | incidence of rash ([6]; Group B): 11.1% | serious adverse events ([6]; Group B): No serious adverse events | number of treatment-emergent adverse events (TEAEs) ([6]; Group B (N = 18)): 18 | subjects who experienced TEAEs ([6]; Group B (N = 18), pyrotinib 400 mg day 1 and pyrotinib + loperamide day 9): 12 subjects | incidence of each other TEAE ([6]; Group B, nausea, abdominal distension, PR interval prolongation on ECG, increased heart rate, increased total bile acid, headache, dizziness (each)): 5.6%

Compound: CN(C)C(=O)C(CCN1CCC(O)(c2ccc(Cl)cc2)CC1)(c1ccccc1)c1ccccc1 [loperamide]
fraction bound to albumin (albumin): 95% | median PFS by antidiarrheal used in diarrhea management ([5]; ad hoc analysis, ref data on file): 19.5 months | maximum concentration ([7]; after 4 mg oral administration, ref Niemi et al., 2006): […] | bioavailability [7]: 0.3% | bioavailability ([7]; listed as Loperamide): about 0.3% | calculated R1 for reversible inhibition (CYP3A4 [8]; CYP3A4): less than 1.0001 | calculated R1,gut (CYP3A4 [8]; based on molecular weight of 477 Dalton, guidance cut off 11): 1,342.7 | IC50 (CYP3A4 [9]): […]
